Assay results: patent US20260139006A1, “CYCLIC PEPTIDE AS INHIBITORS OF FREE-LIVING AMOEBA” (Purdue Research Foundation, priority 2024, published 2026)

Test: Mammalian cytotoxicity counter screening (CellTiter-Glo)
Type: cell-based
Details: human; read-out: A549 IC50 (cytotoxicity)
Experimental: Cytotoxicity of the cyclic peptides was also determined by using the CellTiter-Glo 2.0® assay on A549 human lung carcinoma cells. A549 cells were seeded at a concentration of 1.6×10^4 cells/mL in 96-well plates in the presence of serially diluted compounds, as described above. DMSO (1%) and 100 μM of chlorhexidine were used as the negative and positive controls. A549 were grown in F12K medium supplemented with 10% FBS and 1% penicillin/streptomycin antibiotics. […] The total volume of each well was 100 μL, containing 10 μL compounds and 90 μL cells, and plates were incubated at 37° C., 5% CO2 for 72 hours. At the 72-hours time point, CellTiter-Glo 2.0 Reagent® was added to all the wells and read by the SpectraMax® i3X plate reader as described above. Curve fitting using non-linear regression was carried out using the average of replicates and the Levenberg-Marquardt algorithm, using DMSO as the normalization control, as defined in CDD Vault. The selectivity index (SI) was calculated by using the equation: SI=(IC50 of A549's)/(IC50 of Balamuthia mandrillaris) to determine the specificity of inhibitors.

N=C(N)c1ccc(OCCCCCOc2ccc(C(=N)N)cc2)cc1 [pentamidine]
IC50 at 72 h: 12.8 µM
